{"source": "patent EP4786483A1", "about": "“AURISTATIN DERIVATIVE AND ANTIBODY-DRUG CONJUGATE THEREOF” (priority 2023, dated 2025)", "assay_in_all_cases": "Cytotoxicity test for compounds (CellTiter-Glo cell proliferation inhibition)", "assay_type_in_all_cases": "cell-based", "key": {"[1]": {"test_system": "Human gastric cancer cells NCI-N87", "description": "(§1) Biological Test Example 1: Cytotoxicity Test for Compounds\n(§2) • 96-well clear flat-bottom white plate (Corning, #3610) • RPMI1640 culture medium (Gibco, #A10491-01) • Fetal Bovine Serum (Sigma-Aldrich, #F8687-500ML) • CellTiter-Glo® Luminescent Cell Viability Assay (Promega, # G7572/G7571)\n(§3) Human gastric cancer cells NCI-N87 (ATCC, Cat. No.: CRL-5822), human breast cancer cells MDA-MB-468 (Cell Bank of the Committee for Type Culture Collection of the Chinese Academy of Sciences, Cat. No.: TCHu136), and human breast cancer cells KPL-4 (Nanjing Cobioer Biosciences Co., Ltd., Cat. No.: CBP60379) were washed with PBS and digested with 0.25% Trypsin-EDTA trypsin for about 3-10 min. The digestion was terminated with a complete cell culture medium. The cells were centrifuged at 1000 rpm for 5 min, and the supernatant was discarded. The cells were resuspended in a complete cell culture medium. The cell number was counted using a cell counter, and the cells were adjusted to the desired density. 90.0 µL of the cell suspension was added to each well at 3000 cells/well. The cell plate was incubated in a cell incubator at 37°C with 5% CO2 overnight.\n(§4) In the experiment, a DMSO control group and test sample groups were set. The cell plate was removed from the incubator to observe cell adherence. After the cells adhered, 10.00 µL of the sample (starting from a final concentration of 10 µM, 5-fold dilution, 9 concentrations) was added to each well. After the mixture was gently shaken uniformly, the plate was incubated in the incubator.\n(§5) After 3 days of incubation, 100.0 µL/well of CellTiter-Glo™ (Promega, Cat. No.: G7572/G7571) working solution was added. The plate was shaken on a thermostatic shaker to lyse the cells. After 10 min, the plate was read on a microplate reader.\n(§6) Data analysis: GraphPad Prism 8.0 software was used to plot a graph with the Log value of the sample concentration as the abscissa and the Inhibition% as the ordinate. The data were analyzed by Nonlinear regression (curve fit) to obtain the IC50 value of each test sample. Table 1. Inhibition activity of compounds of the present disclosure on cell proliferation"}, "[2]": {"test_system": "human breast cancer cells KPL-4", "description": "as §1, §2, §3, §4, §5, §6"}, "[3]": {"test_system": "human breast cancer cells MDA-MB-468", "conditions": "Homo sapiens, MDA-MB-468, 72 h", "description": "as §1, §2, §3, §4, §5, §6"}, "[4]": {"conditions": "Homo sapiens, NCI-N87, 72 h, 3 days of incubation, CellTiter-Glo, read-out: NCI-87/IC50"}, "[5]": {"conditions": "Homo sapiens, KPL4, 72 h, 3 days of incubation, CellTiter-Glo, read-out: KPL-4/IC50"}, "[6]": {"conditions": "3 days of incubation, CellTiter-Glo, read-out: MDA-MD-468/IC50"}, "[7]": {"conditions": "Homo sapiens, NCI-N87, 72 h, read-out: NCI-87/IC50 (nM)"}, "[8]": {"conditions": "Homo sapiens, KPL4, 72 h, read-out: KPL-4/IC50 (nM)"}, "[9]": {"conditions": "3 days of incubation, CellTiter-Glo, read-out: NCI-87/IC50"}, "[10]": {"conditions": "3 days of incubation, CellTiter-Glo, read-out: KPL-4/IC50"}}, "note": "Read-outs that look alike come from different tables or passages of the source. Non-standard residues stand in square brackets, D forms with d. Residues, ends and D or L forms follow the SMILES beside them. *: point of attachment. Dolaproine = CO[C@@H]([C@@H]1CCCN1)[C@@H](C)C(=O)O; Dil = CC[C@H](C)[C@H](NC)[C@@H](CC(=O)O)OC; Phe(3-NH2) = Nc1cccc(C[C@H](N)C(=O)O)c1; NMe2Val = CC(C)[C@@H](C(=O)*)N(C)C", "data": [{"smiles": "CC[C@H](C)[C@@H]([C@@H](CC(=O)N1CCC[C@H]1[C@H](OC)[C@@H](C)C(=O)N[C@@H](Cc1cccc(N)c1)C(N)=O)OC)N(C)C(=O)[C@@H](NC(=O)[C@H](C(C)C)N(C)C)C(C)C", "note": "[Example 3, (S)-N-((3R,4S,5S)-1-((S)-2-((1R,2R)-3-(((S)-1-amino-3-(3-aminophenyl)-1-oxopropan-2-yl)amino)-1-methoxy-2-methyl-3-oxopropyl)pyrrolidin-1-yl)-3-methoxy-5-methyl-1-oxoheptan-4-yl)-2-((S)-2-(dimethylamino)-3-methylbutanamido)-N,3-dimethylbutanamide] (NMe2Val-V[Dil][Dolaproine][Phe(3-NH2)]-NH2)", "values": [{"measurement": "IC50", "setting": "[1]; [4]", "value": 38.4, "unit": "nM"}, {"measurement": "IC50", "setting": "[2]; [5]", "value": 18.9, "unit": "nM"}, {"measurement": "IC50", "setting": "[3]; [6]", "value": 25.1, "unit": "nM"}]}, {"smiles": "C#CC[C@H](Cc1cccc(N)c1)OC(=O)[C@H](C)[C@@H](OC)[C@@H]1CCCN1C(=O)C[C@@H](OC)[C@H]([C@@H](C)CC)N(C)C(=O)[C@@H](NC(=O)[C@H](C(C)C)N(C)C)C(C)C", "note": "[Example 17]", "values": [{"measurement": "IC50", "setting": "[1]; [7]", "value": "< 0.0256", "unit": "nM"}, {"measurement": "IC50", "setting": "[2]; [8]", "value": "< 0.0256", "unit": "nM"}, {"measurement": "IC50", "setting": "[3]; read-out: MDA-MD-468/IC50 (nM)", "value": "< 0.0256", "unit": "nM"}]}, {"smiles": "CC[C@H](C)[C@@H]([C@@H](CC(=O)N1CCC[C@H]1[C@H](OC)[C@@H](C)C(=O)N1CCS(=O)(=O)[C@@H](c2cccc(N)c2)C1)OC)N(C)C(=O)[C@@H](NC(=O)[C@H](C(C)C)N(C)C)C(C)C", "note": "(single isomer, unassigned) [Example 61-P2]", "values": [{"measurement": "IC50", "setting": "[1]; [4]", "value": 56.3, "unit": "nM"}, {"measurement": "IC50", "setting": "[2]; [5]", "value": 24.3, "unit": "nM"}, {"measurement": "IC50", "setting": "[3]; [6]", "value": 13.3, "unit": "nM"}]}, {"smiles": "C#C[C@H](Cc1cccc(N)c1)NC(=O)[C@H](C)[C@@H](OC)[C@@H]1CCCN1C(=O)C[C@@H](OC)[C@H]([C@@H](C)CC)N(C)C(=O)[C@@H](NC(=O)[C@H](C(C)C)N(C)C)C(C)C", "note": "[Example 2, (S)-N-((3R,4S,5S)-1-((S)-2-((1R,2R)-3-(((S)-1-(3-aminophenyl)-but-3-yn-2-yl)amino)-1-methoxy-2-methyl-3-oxopropyl)pyrrolidin-1-yl)-3-methoxy-5-methyl-1-oxoheptan-4-yl)-2-((S)-2-(dimethylamino)-3-methylbutanamido)-N,3-dimethylbutanamide]", "values": [{"measurement": "IC50", "setting": "[1]; [4]", "value": 0.51, "unit": "nM"}, {"measurement": "IC50", "setting": "[2]; [5]", "value": 0.21, "unit": "nM"}, {"measurement": "IC50", "setting": "[3]; [6]", "value": 0.36, "unit": "nM"}]}, {"smiles": "CC[C@H](C)[C@@H]([C@@H](CC(=O)N1CCC[C@H]1[C@H](OC)[C@@H](C)C(=O)O[C@H](CO)Cc1cccc(N)c1)OC)N(C)C(=O)[C@@H](NC(=O)[C@H](C(C)C)N(C)C)C(C)C", "note": "[Example 14]", "values": [{"measurement": "IC50", "setting": "[1]; [7]", "value": 5.13, "unit": "nM"}, {"measurement": "IC50", "setting": "[2]; [8]", "value": 1.13, "unit": "nM"}, {"measurement": "IC50", "setting": "[3]; read-out: MDA-MD-468/IC50 (nM)", "value": 3.82, "unit": "nM"}]}, {"smiles": "CC[C@H](C)[C@@H]([C@@H](CC(=O)N1CCC[C@H]1[C@H](OC)[C@@H](C)C(=O)OC(/C=C/C(=O)OC)Cc1cccc(N)c1)OC)N(C)C(=O)[C@@H](NC(=O)[C@H](C(C)C)N(C)C)C(C)C", "note": "(single isomer, unassigned) [Example 28]", "values": [{"measurement": "IC50", "setting": "[1]; [4]", "value": 3.33, "unit": "nM"}, {"measurement": "IC50", "setting": "[2]; [5]", "value": "< 0.0256", "unit": "nM"}, {"measurement": "IC50", "setting": "[3]; [6]", "value": 3.25, "unit": "nM"}]}, {"smiles": "CC[C@H](C)[C@@H]([C@@H](CC(=O)N1CCC[C@H]1[C@H](OC)[C@@H](C)C(=O)N1CCO[C@H](c2cccc(N)c2)C1)OC)N(C)C(=O)[C@@H](NC(=O)[C@H](C(C)C)N(C)C)C(C)C", "note": "[Example 48, (S)-N-((3R,4S,55)-1-((S)-2-((1R,2R)-3-((R)-2-(3-aminophenyl)morpholino)-1-methoxy-2-methyl-3-oxopropyl)pyrrolidin-1-yl)-3-methoxy-5-methyl-1-oxoheptan-4-yl)-2-((S)-2-(dimethylamino)-3-methylbutanamido)-N,3-dimethylbutanamide]", "values": [{"measurement": "IC50", "setting": "[1]; [9]", "value": 4.73, "unit": "nM"}, {"measurement": "IC50", "setting": "[2]; [10]", "value": 2.06, "unit": "nM"}]}, {"smiles": "CC[C@H](C)[C@@H]([C@@H](CC(=O)N1CCC[C@H]1[C@H](OC)[C@@H](C)C(=O)N1CCO[C@@H](c2cccc(N)c2)C1)OC)N(C)C(=O)[C@@H](NC(=O)[C@H](C(C)C)N(C)C)C(C)C", "note": "[Example 51, (S)-N-((3R,4S,SS)-1-((S)-2-((1R,2R)-3-((S)-2-(3-aminophenyl)morpholino)-1-methoxy-2-methyl-3-oxopropyl)pyrrolidin-1-yl)-3-methoxy-5-methyl-1-oxoheptan-4-yl)-2-((S)-2-(dimethylamino)-3-methylbutanamido)-N,3-dimethylbutanamide]", "values": [{"measurement": "IC50", "setting": "[1]; [9]", "value": 16.1, "unit": "nM"}, {"measurement": "IC50", "setting": "[2]; [10]", "value": 6.03, "unit": "nM"}]}]}
